Assay results published in patent publication US20160002204A1 (Board of Regents, The University of Texas System, priority 2014, published 2016).

Legend:
[1] = target: T1, GLS1 (purified recombinant human GAC) (Homo sapiens, UniProt O94925); assay: GLS1 enzymatic activity assay (dual-coupled, Amplex UltraRed/resorufin); type: biochemical
T1 sequence (O94925 55-598 isoform O94925-3 limits assumed): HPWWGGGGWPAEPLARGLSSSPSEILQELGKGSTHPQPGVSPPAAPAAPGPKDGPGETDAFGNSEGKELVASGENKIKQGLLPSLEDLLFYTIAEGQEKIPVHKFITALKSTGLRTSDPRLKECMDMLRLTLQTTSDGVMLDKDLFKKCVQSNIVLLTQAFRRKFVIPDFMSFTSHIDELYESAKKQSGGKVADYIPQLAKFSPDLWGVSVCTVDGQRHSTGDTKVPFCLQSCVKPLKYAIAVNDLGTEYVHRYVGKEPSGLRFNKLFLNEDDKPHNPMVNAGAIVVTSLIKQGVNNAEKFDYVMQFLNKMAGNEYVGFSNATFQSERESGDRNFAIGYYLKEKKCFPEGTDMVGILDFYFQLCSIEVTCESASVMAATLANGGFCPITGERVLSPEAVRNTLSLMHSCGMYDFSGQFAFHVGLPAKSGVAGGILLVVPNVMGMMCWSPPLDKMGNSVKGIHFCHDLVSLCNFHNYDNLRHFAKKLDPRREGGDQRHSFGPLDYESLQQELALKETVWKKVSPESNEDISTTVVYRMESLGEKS
Summary of the method: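 GAC activity measured by coupling glutamate to glutamate oxidase and HRP, generating resorufin from Amplex UltraRed. Enzyme (2 nM) preincubated with 50 mM potassium phosphate 10 min at room temperature, then inhibitor 10 min; 1 mM glutamine substrate, 1% DMSO. Fluorescence 530/590 nm, kinetic or 20-min endpoint; IC50 from four-parameter logistic fit.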

A549 cells = assay: A549 proliferation (viability) assay, Cell Titer Fluor, 72 hours; type: cell-based; details: Homo sapiens
Summary of the method: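 1000 A549 cells/well, RPMI 1640/10% dialyzed FBS, 24 h attach; compound 72 h, 0.5% DMSO, 37 °C/5% CO2; Cell Titer Fluor fluorescence; EC50 via 4-parameter logistic.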

IC50 [1] | EC50 (A549 cells) | SMILES
< 100 nM | < 100 nM | O=C(Cc1ccccc1)Nc1ccn(CCCCn2cc(C(=O)NCc3cccc(OC(F)(F)F)c3)nn2)c(=O)c1F [Example 173, 1-{4-[3-fluoro-2-oxo-4-(2-phenylacetamido)-1,2-dihydropyridin-1-yl]butyl}-N-{[3-(trifluoromethoxy)phenyl]methyl}-1H-1,2,3-triazole-4-carboxamide]
< 100 nM | < 100 nM | CC(C)(C)OC(=O)N[C@H]1CC[C@@H](CC(=O)Nc2ccn(CCC(F)Cn3cc(C(=O)NCc4cccc(OC(F)(F)F)c4)nn3)c(=O)c2)CC1 (stereo partly drawn) [Example 241, tert-butyl N-[(1s,4s)-4-{[(1-{3-fluoro-4-[4-({[3-(trifluoromethoxy)phenyl]methyl}carbamoyl)-1H-1,2,3-triazol-1-yl]butyl}-2-oxo-1,2-dihydropyridin-4-yl)carbamoyl]methyl}cyclohexyl]carbamate]
< 100 nM | < 100 nM | CC(C)(C)OC(=O)N1CCCC(CC(=O)Nc2ccn(CCC(F)Cn3cc(C(=O)NCc4cccc(OC(F)(F)F)c4)nn3)c(=O)c2)C1 (stereo not drawn) [Example 245, tert-butyl 3-{[(1-{3-fluoro-4-[4-({[3-(trifluoromethoxy)phenyl]methyl}carbamoyl)-1H-1,2,3-triazol-1-yl]butyl}-2-oxo-1,2-dihydropyridin-4-yl)carbamoyl]methyl}piperidine-1-carboxylate]
< 100 nM | < 100 nM | O=C(NCc1cncc(C(F)(F)F)c1)c1cn(CC(F)CCn2ccc(NC(=O)C(F)c3ccccc3)c(F)c2=O)nn1 (stereo not drawn) [Example 362, 1-{2-fluoro-4-[3-fluoro-4-(2-fluoro-2-phenylacetamido)-2-oxo-1,2-dihydropyridin-1-yl]butyl}-N-{[5-(trifluoromethyl)pyridin-3-yl]methyl}-1H-1,2,3-triazole-4-carboxamide]
< 100 nM | < 100 nM | O=C(Cc1ccccc1)Nc1ccn(CCC(F)Cn2cc(C(=O)NCc3cccc(C(F)(F)F)n3)nn2)c(=O)c1F (stereo not drawn) [Example 317, 1-{2-fluoro-4-[3-fluoro-2-oxo-4-(2-phenylacetamido)-1,2-dihydropyridin-1-yl]butyl}-N-{[6-(trifluoromethyl)pyridin-2-yl]methyl}-1H-1,2,3-triazole-4-carboxamide]
< 100 nM | < 100 nM | O=C(CC1CCCCC1)Nc1ccn(CCC(F)Cn2cc(C(=O)NCc3cc(Cl)ccc3F)nn2)c(=O)c1F (stereo not drawn) [Example 265, N-[(5-chloro-2-fluorophenyl)methyl]-1-{4-[4-(2-cyclohexylacetamido)-3-fluoro-2-oxo-1,2-dihydropyridin-1-yl]-2-fluorobutyl}-1H-1,2,3-triazole-4-carboxamide]
< 100 nM | 100 to 500 nM | O=C(Nc1ccn(CCCCc2nnc(C(=O)NCc3cc(C(F)(F)F)ccn3)s2)c(=O)c1F)OC1CCC1 [Example 469, cyclobutyl N-(3-fluoro-2-oxo-1-{4-[5-({[4-(trifluoromethyl)pyridin-2-yl]methyl}carbamoyl)-1,3,4-thiadiazol-2-yl]butyl}-1,2-dihydropyridin-4-yl)carbamate]
< 100 nM | 500 to 5000 nM | O=C(CC1CC1(F)F)Nc1ccn(CCCCn2cc(C(=O)NCc3cccc(OC(F)(F)F)c3)nn2)c(=O)c1 (stereo not drawn) [Example 168, 1-(4-{4-[2-(2,2-difluorocyclopropyl)acetamido]-2-oxo-1,2-dihydropyridin-1-yl}butyl)-N-{[3-(trifluoromethoxy)phenyl]methyl}-1H-1,2,3-triazole-4-carboxamide]
< 100 nM | < 100 nM | O=C(CC1CCC1)Nc1ccn(CCC(F)Cn2cc(C(=O)NCc3ccc(OC(F)(F)F)cn3)nn2)c(=O)c1F (stereo not drawn) [Example 389, 1-{4-[4-(2-cyclobutylacetamido)-3-fluoro-2-oxo-1,2-dihydropyridin-1-yl]-2-fluorobutyl}-N-{[5-(trifluoromethoxy)pyridin-2-yl]methyl}-1H-1,2,3-triazole-4-carboxamide]
